Test results from the NIST ThermoML archive (doi:10.1016/j.fluid.2009.06.015).

Assay: excess molar enthalpy (molar enthalpy of mixing); xn = mol fraction of the nth substance listed
Settings: 101 kPa, Liquid, Flow calorimetry

c1ccccc1 [benzene] + CCCCO
excess molar enthalpy [kcal/mol]
Settings	298.15 K	313.15 K
x1 = 0.0494	–	0.0354
x1 = 0.0504	0.0282	–
x1 = 0.0997	0.0566	–
x1 = 0.1007	–	0.0726
x1 = 0.1497	0.0851	0.108
x1 = 0.1997	0.113	–
x1 = 0.2007	–	0.143
x1 = 0.2495	–	0.175
x1 = 0.2505	0.141	–
x1 = 0.3001	0.167	–
x1 = 0.3002	–	0.206
x1 = 0.3506	0.191	–
x1 = 0.3507	–	0.234
x1 = 0.3999	0.212	–
x1 = 0.401	–	0.26
x1 = 0.4493	–	0.28
x1 = 0.4502	0.23	–
x1 = 0.4993	–	0.297
x1 = 0.5002	0.246	–
x1 = 0.5492	–	0.31
x1 = 0.5501	0.257	–
x1 = 0.5998	0.265	–
x1 = 0.601	–	0.317
x1 = 0.6505	0.267	–
x1 = 0.6506	–	0.32
x1 = 0.7	0.264	–
x1 = 0.7001	–	0.316
x1 = 0.7495	–	0.306
x1 = 0.7503	0.256	–
x1 = 0.7996	0.242	–
x1 = 0.8007	–	0.287
x1 = 0.8497	0.22	–
x1 = 0.8498	–	0.259
x1 = 0.8996	0.185	–
x1 = 0.9007	–	0.215
x1 = 0.9495	–	0.145
x1 = 0.9504	0.129	–
